This is an account of results in patent publication US4990521A, “4-(aroylamino)piperidine-butanimide derivatives” (Janssen Pharmaceutica, priority 1989, dated 1991).

Assay [1] can be described thus: Tail Withdrawal Test in Rats (undesired central effects). Particulars: oral, tail in 55° C. water, suppression of withdrawal response exceeding 10 seconds in 50% of animals, fasted male Wistar rats; for ED50: Rattus norvegicus. It is filed as in vivo. How it is done: Male Wistar rats were fasted overnight. Each animal was treated orally with a dose level of the compound to be tested. The thus treated rats Were put into individual restraining cages. At various time periods after administration, the lower 5 cm portion of the tail was immersed into a cup filled with water at a constant temperature of 55° C. The typical tail withdrawal response was evaluated during a 10 seconds period after the immersion. ED50 values in mg/kg body weight were determined as that dose of the test compound capable of suppressing in 50% of the tested animals the typical tail withdrawal response during a time period exceeding 10 seconds. Said ED50 values obtained for the compounds of the present invention are gathered in Table 1 column two.

Assay [2] is described as follows: Ricinus Oil Test in Rats (antidiarrheal activity). It is filed as in vivo. Particulars: compound 1 hour before 1 ml ricinus oil orally, no diarrhea in 50% of animals 1 hour after ricinus oil, fasted female Wistar rats; for ED50: Rattus norvegicus, po, 1 h; for Ricinus Oil Test ED50: oral, 60 min. An excerpt:
The use of the compounds of formula (I), their N-oxide forms, pharmaceutically acceptable acid-addition salts and stereoisomeric forms thereof in the method of the present invention is based on their useful antidiarrheal activity. This property is clearly evidenced by the experimental data obtained in, for example, the "Ricinus oil Test in Rats". […] By virtue of their useful antidiarrheal activity, it is evident that the compounds of formula (I), their N-oxide forms, pharmaceutically acceptable acid addition salts and stereoisomeric forms can be used in the treatment of diarrhea.
Female Wistar rats were fasted overnight. Each animal was treated orally with a dose level of the compound to be tested. One hour thereafter, the animal received 1 ml of ricinus oil orally. Each animal was kept in an individual cage and 1 hour after the ricinus oil treatment, the presence or absence of diarrhea was noted. The ED50 value was determined as that dose in mg/kg body weight, at which no diarrhea was present in 50% of the tested animals. Said ED50 -values for the compounds of the present invention can be found in the first column of Table 1.

Turning to `CC(CC(C(=O)N(C)C)(c1ccccc1)c1ccccc1)N1CC[C@@H](NC(=O)c2ccc(F)cc2N)[C@H](O)C1.O` (relative stereo) [Compound 67, trans-4-[(2-amino-4-fluorobenzoyl)amino]-3-hydroxy-N,N,γ-trimethyl-α,α-diphenyl-1piperidinebutanamide monohydrate], the ED50 (as a rule, the dose at which the effect has come halfway, by size or by number of responders) is greater than 40 mg/kg in assay [1] and less than 0.04 mg/kg in assay [2].
The like results for `CC(CC(C(=O)N(C)C)(c1ccccc1)c1ccccc1)N1CC[C@@H](NC(=O)c2cccc(Cl)c2[N+](=O)[O-])[C@H](O)C1` (relative stereo) [Compound 17] were, in that order, greater than 40 mg/kg and 0.63 mg/kg.
On to `CC(CC(C(=O)N(C)C)(c1ccccc1)c1ccccc1)N1CCC(NC(=O)c2cccc(C(F)(F)F)c2)C(O)C1` (single isomer, unassigned; (-)) [Compound 55, (-)-(3A,trans)-3-hydroxy-N,N,γ-trimethyl-α,α-diphenyl-4-[[3-(trifluoromethyl)benzoyl]amino]-1-piperidinebutanamide], for which, in assay [1], the “Tail Withdrawal Test ED50” value is reported as greater than 160 mg/kg body weight. Also, in assay [2], the “Ricinus Oil Test ED50” value is 1.0 mg/kg body weight.
Regarding `COc1cc(N)c(Cl)cc1C(=O)N[C@@H]1CCN(C(C)CC(C(=O)N(C)C)(c2ccccc2)c2ccccc2)C[C@H]1O` (relative stereo) [Compound 50, trans-4-[(4-amino-5-chloro-2-methoxybenzoyl)amino]-3-hydroxy-N,N,γ-trimethyl-α,α-diphenyl-1-piperidinebutanamide], the ED50 is greater than 40 mg/kg in assay [1] and 2.5 mg/kg in assay [2].
`CC(CC(C(=O)N(C)C)(c1ccccc1)c1ccccc1)N1CCC(NC(=O)c2cccc(C(F)(F)F)c2)C(O)C1` (single isomer, unassigned; (+)) [Compound 57, (+)-(3B,trans)-3-hydroxy-N,N,γ-trimethyl-α,α-diphenyl-4-[[3-(trifluoromethyl)benzoyl]amino]-1-piperidinebutanamide] had an ED50 in assay [1] greater than 160 mg/kg. Also, the “Ricinus Oil Test ED50” value in assay [2] is 0.31 mg/kg body weight.
For the molecule `CC(CC(C(=O)N(C)C)(c1ccccc1)c1ccccc1)N1CC[C@@H](NC(=O)c2cc(Cl)cc(Cl)c2)[C@H](O)C1` (relative stereo) [Compound 7], the results for the ED50 in assay [1] and in assay [2] were greater than 40 mg/kg and 0.31 mg/kg, respectively.
As to `CC(CC(C(=O)N(C)C)(c1ccccc1)c1ccccc1)N1CC[C@@H](NC(=O)c2ccc(F)cc2[N+](=O)[O-])[C@H](O)C1` (relative stereo) [Compound 19], the ED50 in assay [1] was greater than 40 mg/kg; in assay [2] it was 1.25 mg/kg.
For `CC(CC(C(=O)N(C)C)(c1ccccc1)c1ccccc1)N1CC[C@@H](NC(=O)c2cccc([N+](=O)[O-])c2Br)[C@H](O)C1` (relative stereo) [Compound 38], the ED50 is greater than 40 mg/kg in assay [1] and 2.5 mg/kg in assay [2].
The like results for `CC(CC(C(=O)N(C)C)(c1ccccc1)c1ccccc1)N1CC[C@@H](NC(=O)c2c(Cl)cccc2Cl)[C@H](O)C1` (relative stereo) [Compound 5] were, in that order, no less than 40 mg/kg and 0.31 mg/kg.
In the same order, the values of `COc1cc(NC(C)=O)c(Cl)cc1C(=O)N[C@@H]1CCN(C(C)CC(C(=O)N(C)C)(c2ccccc2)c2ccccc2)C[C@H]1O` (relative stereo) [Compound 64, trans-4-[[4-(acetylamino)-5-chloro-2-methoxybenzoyl]amino]-3-hydroxy-N,N,γ-trimethyl-α,α-diphenyl-1-piperidinebutanamide] are greater than 40 mg/kg and 2.5 mg/kg.
The like results for `CC(CC(C(=O)N(C)C)(c1ccccc1)c1ccccc1)N1CC[C@@H](NC(=O)c2cc(Cl)ccc2N)[C@H](O)C1` (relative stereo) [Compound 47, trans-4-[(2-amino-5-chlorobenzoyl)amino]-3-hydroxy-N,N,γ-trimethyl-α,α-diphenyl-1-piperidinebutanamide] were, in that order, roughly 40 mg/kg and 0.08 mg/kg.
Turning to `CC(CC(C(=O)N(C)C)(c1ccccc1)c1ccccc1)N1CC[C@@H](NC(=O)c2ccccc2OCc2ccccc2)[C@H](O)C1` (relative stereo) [Compound 29, trans-3-hydroxy-N,N,γ-trimethyl-α,α-diphenyl-4-[[2-(phenylmethoxy)benzoyl]amino]-1-piperidinebutanamide], the ED50 in assay [1] was roughly 40 mg/kg; in assay [2], no more than 0.63 mg/kg.
The like results for `COc1cc(N)c(Cl)cc1C(=O)N[C@@H]1CCN(C(C)CC(C(=O)N(C)C)(c2ccccc2)c2ccccc2)C[C@H]1OC` (relative stereo) [Compound 53, trans-4-[(4-amino-5-chloro-2-methoxybenzoyl)amino]-3-methoxy-N,N,γ-trimethyl-α,α-diphenyl-1-piperidinebutanamide] were, in that order, roughly 40 mg/kg and 2.5 mg/kg.
With `COc1cc(Cl)ccc1C(=O)N[C@@H]1CCN(C(C)CC(C(=O)N(C)C)(c2ccccc2)c2ccccc2)C[C@H]1O` (relative stereo) [Compound 30], the ED50 in assay [1] was no less than 40 mg/kg; in assay [2], 0.63 mg/kg.
